Results taken from US4792550A, “13-aza-14-oxo-TXA2 analogues” (Ono Pharmaceutical Co., Ltd., priority 1984, dated 1988).
pIC50: −log10 of the molar value. Where two headings read alike, the source gives them in different places.

Legend:
[1] = tested on: platelet aggregation induced by STA2 in human blood; test: Inhibitory activity of platelet aggregation induced by STA2 in human blood; type: cell-based; details: method of Born, read-out: concentrations required 50% inhibition on platelet aggregation (IC50)
Procedure: (i) concentrations required 50% inhibition (IC50) on platelet aggregation using human blood induced by STA2 (9,11-epithio-15-hydroxy-11a-carbathromb-5Z,13E-dienoic acid), and
(i) Inhibitory activitv of platelet aggregation induced by STA2 in human blood
Whole blood of healthy human adult was collected with citric acid, and the mixture (20 ml) was centrifuged (180×g) for 10 min. The surpernatant obtained was diluted with sufficient platelet poor plasma to obtain plasma which contains 300,000 platelet cells per μl.
A solution of tested compound in ethanol (1 μl) was added to the obtained plasma (250 μl), and then a solution of STA2 in ethanol was added to the mixture. The measurement was carried out followed by the method of Born and then IC50 was calculated.

[2] = tested on: contraction of artery induced by STA2; test: Inhibitory activity on contraction of artery (increase of blood pressure) induced by STA2 in guinea pig; type: in vivo; details: male guinea pig, 100 μg/kg i.v., blood pressure at carotid artery; for inhibition in vivo at 0.1 mg/kg: Cavia porcellus, iv, read-out: Inhibitory ratios on contraction of artery
Procedure: (ii) inhibitory percentages on contraction of artery induced by STA2 in guinea pigs.
(ii) Inhibitory activity of increasing of blood pressure
A glycine-sodium hydroxide buffer solution (pH 10) of tested compound was administered intravenously to a urethaneanaesthetized male guinea pig weighing 200-350 g, at a rate of 100 μg/kg animal body weight via carotid vein.
And a solution of STA2 in phosphate buffer (pH 7.4) was administered intravenously. Change of the blood pressure was measured at carotid artery and then inhibition ratio (%) was calculated.

pIC50 ([1]; Homo sapiens, Platelet)	pIC50 [1]	SMILES	Inhibitory ratios on contraction of artery [2]	inhibition in vivo at 0.1 mg/kg [2]
6.52	–	CC(C)C(O)C(=O)N[C@H]1C[C@H]2C[C@@H]([C@@H]1C/C=C\CCCC(=O)O)C2(C)C (single isomer, unassigned) [1(jj)]	46.8%	–
–	6.59	CC(C)C(O)C(=O)N[C@H]1C[C@H]2C[C@@H]([C@@H]1C/C=C\CCCC(=O)O)C2(C)C (single isomer, unassigned) [1(kk)]	18.5%	–
6.54	–	CC1(C)[C@H]2C[C@H](NC(=O)CCSc3ccccc3)[C@@H](C/C=C\CCCC(=O)O)[C@@H]1C2 [1(aa)]	–	66.4%
6.55	–	CC1(C)[C@H]2C[C@H](NC(=O)C(O)CCc3ccccc3)[C@@H](C/C=C\CCCC(=O)O)[C@@H]1C2 (some centres unmarked) [1(b)]	–	75.2%
6.49	–	CCCCCC(O)C(=O)N[C@H]1C[C@H]2C[C@@H]([C@@H]1C/C=C\CCCC(=O)O)C2(C)C (some centres unmarked) [1(c)]	–	71.2%
6.15	–	CC1(C)[C@H]2C[C@H](NC(=O)CC3Cc4ccccc4C3)[C@@H](C/C=C\CCCC(=O)O)[C@@H]1C2 [1(cc)]	–	–
6.26	–	CCC(C)CC(=O)N[C@H]1C[C@H]2C[C@@H]([C@@H]1C/C=C\CCCC(=O)O)C2(C)C (some centres unmarked) [1(dd)]	–	37.1%
6.42	–	CC(C)CC(=O)N[C@H]1C[C@H]2C[C@@H]([C@@H]1C/C=C\CCCC(=O)O)C2(C)C [1(ee)]	–	39%
6.52	–	CC(C)CCC(=O)N[C@H]1C[C@H]2C[C@@H]([C@@H]1C/C=C\CCCC(=O)O)C2(C)C [1(hh)]	–	42%
6.25	–	CC1(C)[C@H]2C[C@H](NC(=O)C3CCCC3)[C@@H](C/C=C\CCCC(=O)O)[C@@H]1C2 [1(o)]	–	34.2%
6.17	–	CC1(C)[C@H]2C[C@H](NC(=O)CCCc3cccc(Cl)c3)[C@@H](C/C=C\CCCC(=O)O)[C@@H]1C2 [1(r)]	–	58.6%
6.72	–	CC(CC(=O)N[C@H]1C[C@H]2C[C@@H]([C@@H]1C/C=C\CCCC(=O)O)C2(C)C)Cc1ccccc1 (some centres unmarked) [1(w)]	–	60.5%
6.38	–	CC1(C)[C@H]2C[C@H](NC(=O)CC3CCCC3)[C@@H](C/C=C\CCCC(=O)O)[C@@H]1C2 [2(g)]	–	39%
6.35	–	CC1(C)[C@H]2C[C@H](NC(=O)C(Cl)C3CCCC3)[C@@H](C/C=C\CCCC(=O)O)[C@@H]1C2 (some centres unmarked) [2(h)]	–	57.6%
6.25	–	CCCCC(=O)N[C@H]1C[C@H]2C[C@@H]([C@@H]1C/C=C\CCCC(=O)O)C2(C)C [2(j)]	–	27.3%
6.37	–	CC1(C)[C@H]2C[C@H](NC(=O)CCCc3ccccc3)[C@@H](C/C=C\CCCC(=O)O)[C@@H]1C2 [3(c)]	–	78.1%
6.20	–	CC1(C)[C@H]2C[C@H](NC(=O)CCCCc3ccccc3)[C@@H](C/C=C\CCCC(=O)O)[C@@H]1C2 [3(g)]	–	60.5%
6.17	–	CCCCCC(=O)N[C@H]1C[C@H]2C[C@@H]([C@@H]1C/C=C\CCCC(=O)O)C2(C)C [Example 6, 9α,11α-dimethylmethano-13-aza-14-oxo-20-nor-11a-carbathromb-5Z-enoic acid]	–	78.1%
